The source of these data is ChEMBL document CHEMBL5346896, “Development of indolealkylamine derivatives as potential multi-target agents for COVID-19 treatment” (Eur J Med Chem, 2023).

As a reminder, the inhibition is the change of the read-out against control, counted positive when it falls. A word on the pKi: it is the negative decadic logarithm of the Ki, by convention in mol/L. In general, pEC50 refers to −log10 of the EC50, conventionally taken in molar units. For orientation: pIC50 means the negative decadic logarithm of the IC50, by convention in mol/L.

pEC50, pIC50, pKi: −log10 of the molar value. Activity calls are given as the source filed them. No cut-off for these calls is given here.

For series [1], the system named is SARS-CoV-2. Nature of the series: Antiviral activity against SARS-CoV-2 infected in African green monkey Vero cells assessed as inhibition of viral replication at 1 uM preincubated with cells for 1 hrs followed by viral infection by FISH-flow quantification analysis. As to conditions: Severe acute respiratory syndrome coronavirus 2. The format is functional, organism-based.

Another series relates to HEK-293T. The series is described as follows: Cytotoxicity against HEK293T cells expressing human ACE2 assessed as effect on cell viability. The format is toxicity, cell-based.
The subject of series [2] is SARS-CoV-2. Nature of the series: Antiviral activity against SARS-CoV-2 infected in African green monkey Vero cells assessed as inhibition of viral replication at 10 uM preincubated with cells for 1 hrs followed by viral infection by FISH-flow quantification analysis. The format is functional, organism-based. The settings on record: Severe acute respiratory syndrome coronavirus 2.

The test system of series [3] is Vero. Nature of the series: Cytotoxicity against African green monkey Vero cells infected with SARS-CoV-2 assessed as effect on cell viability. The format is toxicity, cell-based. The settings on record: chlorocebus sabaeus.
In series [4] the target is Replicase polyprotein 1ab (Severe acute respiratory syndrome coronavirus 2) (UniProt P0DTD1). Nature of the series: Inhibition of SARS-CoV-2 main protease transfected in HEK293T cells co-transfected with gain of signal Src and Tat-Luc reporter construct at 1 uM measured 48 hrs post transfection by luciferase based analysis relative to control. The format is cell-based.

The subject of series [5] is Vero. Nature of the series: Cytotoxicity against African green monkey Vero cells assessed as effect on cell viability. The format is toxicity, cell-based. The settings on record: chlorocebus sabaeus.
The target of series [6] is Spike glycoprotein/Angiotensin-converting enzyme 2 (Severe acute respiratory syndrome coronavirus 2) (UniProt Q9BYF1+P0DTC2). The series is described as follows: Inhibition of d2-labelled SARS-CoV-2 spike protein RBD-terbium labelled SNAP tagged human ACE2 interaction transfected in HEK293 cells at 100 uM preincubated with cells for 1 hrs followed by RBD-d2 addition and measured after 2 hrs by TR-FRET assay relative to control. As to conditions: time 3.0 hrs. The format is cell-based.

In series [7] the target is T1, Melatonin receptor type 1B (Homo sapiens, UniProt P49286).
T1 sequence (P49286 whole entry): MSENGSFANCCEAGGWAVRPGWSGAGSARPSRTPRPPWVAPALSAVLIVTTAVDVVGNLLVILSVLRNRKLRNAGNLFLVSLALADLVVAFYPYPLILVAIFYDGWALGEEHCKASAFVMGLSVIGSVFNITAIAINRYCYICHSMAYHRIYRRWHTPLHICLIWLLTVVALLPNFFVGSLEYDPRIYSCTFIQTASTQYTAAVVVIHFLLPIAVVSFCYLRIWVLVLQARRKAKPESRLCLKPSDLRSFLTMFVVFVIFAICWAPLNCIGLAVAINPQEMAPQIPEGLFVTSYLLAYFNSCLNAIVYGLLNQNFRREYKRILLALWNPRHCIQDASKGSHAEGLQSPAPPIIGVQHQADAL
Nature of the series: Displacement of 2-[125I]iodomelatonin from human melatonin MT2 receptor stably expressed in human HEK293 cell membrane assessed as inhibition constant incubated for 120 mins by rapid filtration based competition binding assay. The format is cell membranes.

For series [8], the species on record is Homo sapiens. The series is described as follows: Inhibition of CAMKII (unknown origin) using syntide-2 as substrate assessed as maximum efficacy at 50 uM incubated for 30 mins by spectrophotometric analysis relative to control.
Series [9] is described as follows: Inhibition of CAMKII (unknown origin) using syntide-2 as substrate assessed as maximum efficacy incubated for 30 mins by spectrophotometric analysis. Set-up: species or system Homo sapiens.
Series [10] has as its target T2, Melatonin receptor type 1A (Homo sapiens, UniProt P48039). The series is described as follows: Displacement of 2-[125I]iodomelatonin from human melatonin MT1 receptor stably expressed in HEK293 cell membrane assessed as inhibition constant incubated for 120 mins by rapid filtration based competition binding assay. The format is cell membranes.
In series [11] the target is Angiotensin-converting enzyme 2 (Homo sapiens) (UniProt Q9BYF1). Nature of the series: Inhibition of recombinant ACE2 (unknown origin) exopeptidase activity using fluorogenic substrate at 0.5 to 10 uM incubated for 1 hrs by fluorescence based analysis. As to conditions: dose 0.5-10 µM.
Chain of Angiotensin-converting enzyme 2 (Homo sapiens) (Q9BYF1 18-805 limits assumed): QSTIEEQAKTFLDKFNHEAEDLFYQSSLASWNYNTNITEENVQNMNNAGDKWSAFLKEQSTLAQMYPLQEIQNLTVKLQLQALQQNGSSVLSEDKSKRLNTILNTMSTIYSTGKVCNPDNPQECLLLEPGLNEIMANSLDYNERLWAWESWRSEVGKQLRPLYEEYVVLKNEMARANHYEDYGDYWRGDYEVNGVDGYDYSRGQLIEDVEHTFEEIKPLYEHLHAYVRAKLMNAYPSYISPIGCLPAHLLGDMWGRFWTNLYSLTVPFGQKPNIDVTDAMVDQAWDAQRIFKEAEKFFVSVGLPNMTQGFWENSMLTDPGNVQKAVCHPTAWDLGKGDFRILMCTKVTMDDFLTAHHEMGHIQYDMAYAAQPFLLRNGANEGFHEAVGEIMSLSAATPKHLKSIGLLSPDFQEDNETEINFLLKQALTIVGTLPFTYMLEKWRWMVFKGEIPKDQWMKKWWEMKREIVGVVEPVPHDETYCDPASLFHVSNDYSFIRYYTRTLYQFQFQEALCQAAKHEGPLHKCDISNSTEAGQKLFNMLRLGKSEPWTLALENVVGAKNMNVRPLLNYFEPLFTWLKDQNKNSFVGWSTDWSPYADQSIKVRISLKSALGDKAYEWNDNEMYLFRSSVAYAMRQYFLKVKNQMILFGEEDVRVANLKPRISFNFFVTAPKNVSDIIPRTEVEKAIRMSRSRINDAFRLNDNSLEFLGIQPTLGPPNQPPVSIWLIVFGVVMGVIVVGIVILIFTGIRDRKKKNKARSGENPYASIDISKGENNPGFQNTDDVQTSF
For series [12], the species on record is Homo sapiens. Nature of the series: Selectivity ratio of pKi for displacement of 2-[125I]iodomelatonin from human melatonin MT1 receptor stably expressed in human HEK293 cell membrane to pKi for displacement of 2-[125I]iodomelatonin from human melatonin MT2 receptor stably expressed in human HEK293 cell membrane.
In series [13] the target is T2, Melatonin receptor type 1A. The series is described as follows: Partial agonist activity at human melatonin MT1 receptor expressed in HEK293 cells co-transfected with Galphai9 chimera construct assessed as stimulation of inositol phosphate production by HTRF based assay. The format is functional, cell-based.
For series [14], the target named is T1, Melatonin receptor type 1B. The series is described as follows: Partial agonist activity at human melatonin MT2 receptor expressed in HEK293 cells co-transfected with Galphai9 chimera construct assessed as stimulation of inositol phosphate production by HTRF based assay. The format is functional, cell-based. A general note: TR-FRET usually uses a lanthanide donor and a delayed reading to cut background.

The test system of series [15] is SARS-CoV-2. The series is described as follows: Antiviral activity against SARS-CoV-2 assessed as inhibition of viral replication. The format is functional, organism-based. The settings on record: Severe acute respiratory syndrome coronavirus 2.
Series [16] addresses Angiotensin-converting enzyme 2 (Homo sapiens) (UniProt Q9BYF1). Nature of the series: Inhibition of recombinant ACE2 (unknown origin) exopeptidase activity using fluorogenic substrate at 0.5 to 10 uM incubated for 1 hrs by fluorescence based analysis relative to control. The settings on record: dose 0.5-10 µM.
Series [17] has as its target T2, Melatonin receptor type 1A. The series is described as follows: Inverse agonist activity at human melatonin MT1 receptor expressed in HEK293 cells co-transfected with Galphai9 chimera construct assessed as stimulation of inositol phosphate production by HTRF based assay. The format is functional, cell-based.

T2 sequence (P48039 whole entry): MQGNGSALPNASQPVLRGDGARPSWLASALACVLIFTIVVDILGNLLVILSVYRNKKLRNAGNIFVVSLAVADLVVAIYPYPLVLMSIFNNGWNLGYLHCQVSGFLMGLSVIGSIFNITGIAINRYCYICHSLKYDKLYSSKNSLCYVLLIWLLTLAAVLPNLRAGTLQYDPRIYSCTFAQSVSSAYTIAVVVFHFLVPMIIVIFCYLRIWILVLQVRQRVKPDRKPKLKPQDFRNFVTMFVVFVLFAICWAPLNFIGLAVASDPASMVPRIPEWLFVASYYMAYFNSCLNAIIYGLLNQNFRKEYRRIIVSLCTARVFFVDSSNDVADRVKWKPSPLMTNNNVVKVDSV

For `COc1ccc2[nH]c(C(O)c3ccc(Cl)cc3)c(CCNC(C)=O)c2c1` (centres undefined), the outcome in the series on SARS-CoV-2 [1] and with SARS-CoV-2 [2] was inactive. The Activity result in the series on HEK-293T, in the series on Vero [3] and with Vero [5] was “Non-Toxic” throughout. Also, the figures for the inhibition in [4] and in [6] were less than 20% and 35%, respectively. The pKi in series [7] is 7.29; in series [10] it was 6.29. The Imax in the series listed under Homo sapiens [8] was determined as 40%. Further, the pEC50 in series [9] was roughly 4.60. The inhibition result in series [11] was “inactive”.

With `COc1ccc(C(O)c2[nH]c3ccc(OC)cc3c2CCNC(C)=O)c(F)c1` (centres undefined), the Ratio pKi in the series listed under Homo sapiens [12] was determined as 0.79. Further, the pKi is 6.53 in series [7] and 5.17 in series [10]. In addition, the inhibition result in [11] is “inactive”.

With `COc1ccc2[nH]c(C(O)c3ccc(F)cc3)c(CCNC(C)=O)c2c1` (centres undefined), in the series filed under Homo sapiens [12], the Ratio pKi was 0.98. For the same molecule, the pEC50 in series [13] is greater than 5.00; in series [14], greater than 5.00; in series [9], roughly 4.60. The inhibition in [6] was 20%. For the same molecule, the negative logarithm of the Ki (pKi) in [7] is 5.34; in [10] it was 5.27. The Imax in the series listed under Homo sapiens [8] was determined as 40%. Besides, the inhibition entry in series [11] was “inactive”.

For `COC(=O)NCCc1c(C(O)c2ccc(OC)cc2F)[nH]c2ccc(OC)cc12` (centres undefined), in the series filed under Homo sapiens [12], the Ratio pKi worked out at 1.07. Also, the pEC50 in series [13] and in [14] was greater than 5.00 in each case. For the same molecule, the negative-log Ki (pKi) was 5.31 in series [7] and 5.69 in [10]. Moreover, in series [11], the inhibition result was “inactive”.

For the molecule `CC(=O)NCCc1c(C(O)c2ccc(Cl)cc2)[nH]c2ccccc12` (centres undefined), in the series filed under Homo sapiens [12], the Ratio pKi was found to be 0.99. The molecule further came in with an inhibition in series [6] of 20%. Further, the pKi in series [7] was 5.36; in series [10], 5.35. In [11], the inhibition entry was “inactive”.

For `COc1ccc2[nH]cc(CCNC(C)=O)c2c1`, the Imax in the series filed under Homo sapiens [8] was determined as 20%.

Turning to `COc1ccc(C(O)c2[nH]c3ccc(OC)cc3c2CCNC(C)=O)cc1` (centres undefined), the Ratio pKi in the series filed under Homo sapiens [12] turned out to be 0.8. Moreover, in series [6], the inhibition was 20%. In addition, the pKi in series [7] is 6.37; in series [10], 5.12. For the same molecule, in series [11], the inhibition result was “inactive”.

`CC(=O)NCCc1c(C(O)c2ccccc2)[nH]c2ccccc12` (centres undefined): in the series filed under Homo sapiens [12], the Ratio pKi was 0.93. The figures for the pKi in series [7] and in series [10] were 6.00 and 5.56, respectively.

On to `O=C(Oc1cncc(Cl)c1)c1cccc2[nH]ccc12`, for which the pIC50 with SARS-CoV-2 [15] is 5.55.

Take `CC(=O)NCC(=O)N[C@@H](CC(=O)O)C(=O)N[C@@H](Cc1ccc(O)cc1)C(=O)N[C@@H](CO)C(=O)N[C@@H](Cc1cnc[nH]1)C(=O)N[C@H]1CSSC[C@@H](C(=O)N[C@H](C(=O)N[C@@H](Cc2ccc(O)cc2)C(=O)N2CCC[C@H]2C(=O)N[C@@H](CC(=O)O)C(=O)N2CCC[C@H]2C(=O)N[C@@H](CCC(=O)O)C(=O)NCC(=O)NCC(=O)NCC(N)=O)[C@@H](C)O)NC(=O)[C@H](CCCCN)NC(=O)[C@H](Cc2c[nH]c3ccccc23)NC(=O)[C@H](Cc2c[nH]c3ccccc23)NC(=O)[C@@H]2CCCN2C(=O)[C@H](Cc2ccc(O)cc2)NC(=O)[C@H](Cc2ccc(O)cc2)NC(=O)[C@H](CCCNC(=N)N)NC(=O)[C@H](CC(C)C)NC(=O)[C@@H]2CCCN2C(=O)[C@H](CO)NC1=O`: the inhibition in series [16] is 100%.

With `COC(=O)NCCc1c(C(O)c2ccccc2)[nH]c2ccccc12` (centres undefined), in the series filed under Homo sapiens [12], the Ratio pKi was 0.81. Moreover, the pKi in series [7] is 5.70; in series [10], 4.64.

Take `COC(=O)NCCc1c(C(O)c2ccc(OC)cc2)[nH]c2ccc(OC)cc12` (centres undefined): in the series listed under Homo sapiens [12], the Ratio pKi stood at 0.94. The molecule further yielded an inhibition in [6] of 20%. Also, the pKi was 4.18 in [7] and 3.96 in series [10]. In series [11], the inhibition result was “inactive”.

As to `COc1ccc2cccc(CCNC(C)=O)c2c1`, the Imax in the series listed under Homo sapiens [8] was 20%.

Regarding `CN1CC(=O)NC(CCc2c(C(O)c3ccccc3N)[nH]c3ccccc23)C1=O` (centres undefined), the Ratio pKi in the series listed under Homo sapiens [12] is 0.92. The negative-log Ki (pKi) was 4.77 in series [7] and 4.38 in series [10].

As for `O=C(NCCc1c(C(O)c2ccccc2)[nH]c2ccccc12)C(F)(F)F` (centres undefined), the negative logarithm of the EC50 (pEC50) in [17] is greater than 5.00. For the same molecule, the Ratio pKi in the series filed under Homo sapiens [12] worked out at 0.94. Moreover, the negative logarithm of the Ki (pKi) in [7] was 5.94; in [10], 5.60.

`COC(=O)NCCc1c(C(O)c2ccc(F)cc2)[nH]c2ccc(OC)cc12` (centres undefined): the Ratio pKi in the series listed under Homo sapiens [12] came out at 0.94. The results for the negative logarithm of the EC50 (pEC50) in series [13] and in [14] were 5.50 and 6.59, respectively. Further, the results for the negative logarithm of the Ki (pKi) in series [7] and in series [10] were 6.13 and 5.74, respectively. The inhibition result in series [11] is “inactive”.

As to `COC(=O)NCCc1c(C(O)c2ccc(Cl)cc2)[nH]c2ccccc12` (centres undefined), in the series filed under Homo sapiens [12], the Ratio pKi was 0.87. The negative logarithm of the Ki (pKi) was 5.28 in [7] and 4.60 in [10].

Consider `CCC(=O)NCC[C@@H]1CCc2ccc3c(c21)CCO3`, for which, in the series filed under Homo sapiens [8], the Imax was found to be 20%.

As for `COC(=O)NCCc1c(C(O)c2ccccc2)[nH]c2ccc(OC)cc12` (centres undefined), in the series with SARS-CoV-2 [1], the outcome was inactive. Also, the Activity entry in the series on HEK-293T, in the series with Vero [3] and in the series on Vero [5] was “Non-Toxic” throughout. Moreover, the outcome in the series with SARS-CoV-2 [2] was Active. Further, the figures for the pEC50 in series [13], in [14] and in [9] were greater than 5.00, greater than 5.00 and roughly 4.60, respectively. The figures for the inhibition in series [4] and in series [6] were greater than 70% and 20%, respectively. Further, the pKi in series [7] was 6.72; in [10], 6.05. For the same molecule, the Imax in the series filed under Homo sapiens [8] amounted to 40%. Also, the inhibition entry in series [11] was “inactive”.

Regarding `COc1ccc2[nH]c(C(O)c3ccccc3)c(CCNC(C)=O)c2c1` (centres undefined), in the series filed under Homo sapiens [12], the Ratio pKi was determined as 0.98. In addition, the figures for the negative logarithm of the EC50 (pEC50) in series [13] and in [14] were 6.28 and 6.65, respectively. The same molecule gave an inhibition in [6] of 20%. Further, the pKi in [7] was 6.01; in [10], 5.90. The inhibition entry in series [11] was “inactive”.
